In patent US20220098162A1, “APHTHYLAMINE COMPOUND AND BIOLOGICALLY ACCEPTABLE SALT THEREOF, PREPARATION METHOD THEREFOR, AND APPLICATION THEREOF” (Henan Radiomedical Science and Technology Co., Ltd, priority 2019, published 2022):
Where a name gives a salt, the structure may show the parent alone.

Key:
Format in all cases: cell-based
PC9AR cells = test: MTT experiment, PC9-AR cells; conditions: 48 hours, hydrochloride salt
Description: (§1) Experiment on Inducing Apoptosis of Breast Cancer, Colon Cancer and Lung Cancer Cancer Cells
(§2) Method: collecting logarithmic growth phase MDA-MB-231, MCF-7, HCT-116, PC9-AR, PC9-GR, PC9 cells, counting, adjusting the cell suspension concentration to 50000 cells/mL, adding 100 ul cell suspension to each well, that is, 5000 cells per well, and adding the above cancer cells to the hydrochloride of the naphthylamine compounds of 1a and 3a of the invention, to enable the final concentration of the hydrochloride of the naphthylamine compound in the system to be several gradients of 0.1, 0.3, 1, 3, 10, 30, 100, 300 (μmol/L), and continuing culturing for 48 hours; after treating with drug, adding 50 μL of Thiazole Blue reagent (1 mg/mL) to each well, incubating at 37° C. for 4 hours, shaking the plate to discard the liquid in the well, draining the water, absorbing the remaining liquid with filter paper, and then adding 100 μL of dimethyl sulfoxide; reacting on a horizontal shaker for 7-8 minutes, until the blue-violet crystals are completely dissolved; reading the value with a microplate reader, measuring the OD value at the absorption wavelength of 570 nm, recording the result. […]

PC9GR cells = test: MTT experiment, PC9-GR cells; conditions: 48 hours, hydrochloride salt
Description: as §1, §2

PC9 cells = test: MTT experiment, PC9 cells; conditions: Homo sapiens, PC-9, 48 hours, hydrochloride salt
Description: as §1, §2

HCT-116 cells = test: MTT experiment, HCT-116 cells; conditions: Homo sapiens; HCT-116, MTT, 48 hours, hydrochloride salt
Description: as §1, §2

MDA-MB-231 cells = test: MTT experiment, MDA-MB-231 cells; conditions: Homo sapiens; MDA-MB-231, MTT, 48 hours, hydrochloride salt
Description: as §1, §2

p-STAT3 in HCC827 cells = test: Westernblot experiment, STAT3 and p-STAT3 in IL-6 stimulated HCC827 cells; conditions: HCC827, 10, 30, 100 and 300 μmol/L, IL-6 30 ng/mL
Description: (1) Taking HCC827 cells in logarithmic growth phase, digesting them with trypsin, preparing a single cell suspension with a density of 300,000 cells/mL with RPMI-1640 medium containing 10% fetal bovine serum, and adding 2 mL of cell suspension to each well to inoculate a 6-well cell culture plate.
(2) Incubating in a 37° C., 5% CO2 incubator. After the cells adhere to the wall, adding the experimental group with different concentrations of the drug SMY002 (3a), and the concentration gradients are: 10, 30, 100 and 300 μmol/L; adding 30 μL of interleukin-6 (IL-6) one hour later at a concentration of […] to stimulate the cells, and the final concentration of interleukin-6 (IL-6) is 30 ng/mL.
(3) After continuing to culture for 0.5 h, lysing the cells with RIPA lysis buffer to collect proteins. […]
(4) Transferring the cell supernatant to a clean centrifuge tube. Dividing the cell supernatant into two parts: taking 5 μL and add it to a 1.5 mL centrifuge tube for BCA to measure the protein content, then adding 45 μL of 1× phosphate buffered saline (PBS) and mixing well for later use; quantitatively taking 140 μL of the remaining cell supernatant, adding 35 μL of 5×SDS loading buffer, boiling in boiling water for 8 minutes after mixing, and storing in a refrigerator at −20° C. after centrifugation. […]

MCF-7 cells = test: MTT experiment, MCF-7 cells; conditions: Homo sapiens, MCF7; MCF-7, MTT, 48 hours, hydrochloride salt
Description: as §1, §2

SMILES | IC50 (PC9AR cells) [nM] | IC50 (PC9GR cells) [nM] | IC50 (PC9 cells) [nM] | IC50 (HCT-116 cells) [nM] | IC50 (MDA-MB-231 cells) [nM] | amount of STAT3 protein expressed (Westernblot) (p-STAT3 in HCC827 cells) | expression of p-STAT3 (Westernblot) (p-STAT3 in HCC827 cells) | IC50 (MCF-7 cells) [nM]
Nc1ccc(OC(=O)c2ccc(OCCN3CCCCC3)cc2)c2ccccc12 [SMY001 (1a), 4-(2-(piperidin-1-yl)ethoxy) benzoic acid-4-amino-1-naphthyl ester dihydrochloride] | 38500 | 30400 | 26600 | 25400 | 14900 | – | – | –
Nc1ccc(OCc2ccc(OCCN3CCCCC3)cc2)c2ccccc12 [SMY002 (3a), 4-(4-(2-(piperidin-1-yl)ethoxy)benzyloxy)-1-naphthylamine dihydrochloride] | 655 | 472 | 473 | 1980 | 1810 | remains unchanged | significantly inhibits | 2040
